Test results: patent publication US20120288482A1, “THERAPEUTIC AGENT (Y-39983) FOR CORNEAL ENDOTHELIAL DYSFUNCTION” (priority 2009, published 2012)

Tests used:
[1] = tested on: corneal endothelial wound; assay: Rabbit corneal endothelial wound model, topical instillation (Example 1); assay type: in vivo; conditions: for area of the unrepaired wound site (corneal endothelium wound area): 6 times a day, 46 hours after wound creation
Protocol: In this Example, 0.95 mM (0.03 w/v%) compound (I) instillation and 0.32 mM (0.01 w/v%) compound (I) instillation obtained by diluting the above instillation with the above-mentioned vehicle were used.
As a positive control substances, Y-27632 dihydrochloride (Wako Pure Chemical Industries, Co., Ltd., Cat. #253-00513) and fasudil hydrochloride hydrate injection (Eril (registered trade mark) drip intravenous injection, Asahi Kasei Pharma) were purchased, and Y-27632 and Fasudil were each adjusted to 10 mM with phosphate-buffered saline (PBS, Invitrogen, Cat. #14190). In addition, PBS was used as a negative control substance.
Male Japanese white rabbits (body weight 2.5-3.0 kg, 21 rabbits) were purchased from Biotek Co., Ltd. and used. They are kept in individual cages at 23±3° C. temperature, at 55±10% humidity and 12 hours artificial light cycle (lighting on; 8:00 a.m., lighting off; 8:00 p.m.). One hundred grams of solid food (Labo R stock; Nosan Corp.) are provided daily to each animal. Water is supplied by automatic watering apparatus.
3. Excision of Nictitating Membrane of Animal Before starting the test, the nictitating membrane of both eyes of the animal was excised. To be specific, each animal was set in a positioner, and the ocular surface was topically anesthetized by instillation of a topical anesthesia (Benoxil instillation 0.4%, Santen Pharmaceutical Co., Ltd.). Then, the root position of the nictitating membrane was pressed with a clamp for 30 sec, and compressing mark was cut with scissors. After excision of the nictitating membrane, the antibiotic ointment (tarivid eye ointment, Santen Pharmaceutical Co., Ltd.) was instilled to prevent infection. After 4 days from the excision of the nictitating membrane, animals confirmed to have no abnormality in the external eye including the excised site were used.
The corneal thickness of the right eye of each animal was measured with an ultrasonic pachymeter (manufactured by DGH Technologies Inc., DGH-500), and the animals were divided into 4 groups such that the corneal thickness of each group was equal. The animals used for each group were as follows. • 10 mM Y-27632 group=5 eyes • 0.32 mM compound (I) group=5 eyes • 0.95 mM compound (I) group=6 eyes • 10 mM Fasudil group=5 eyes • PBS group=21 eyes (left eye)
The animals were sytemically anesthetized by intramuscular administration of Ketalar muscular injection ([…], DAIICHI SANKYO COMPANY, LIMITED., 0.6 ml) and Celactal 2% Injection (Bayer, Ltd., 0.25 ml). Then, Benoxil instillation 0.4% (Santen Pharmaceutical Co., Ltd., one drop) was instilled and the eye was opened using a lid speculum.
A 7-mm diameter stainless dowel that had been cooled in liquid nitrogen was placed on the central cornea of both eyes of 21 animals for 15 sec. to produce an ice ball in the anterior chamber and dissociate corneal endothelial cells, whereby a corneal endothelial wound was produced.
For topical instillation, after wound creation, compound (I) instillation, Y-27632 instillation or Fasudil instillation was instilled to the right eye, and PBS was instilled to the left eye 6 times a day (4 times on the day of wound production) at 50 μL per instillation. Administration interval in one day was 2 hours. […]

corneoscleral tissues = assay: Cell death suppression in cornea preserved in corneal storage solution (Example 10); assay type: cell-based, rabbit; conditions: 4° C.
Protocol: In this Example, test substances and control substances prepared in the same manner as in Example 4 were used. Both right and left eyeballs of 5 male Japanese white rabbits (Biotek Co., Ltd.) were removed, and corneoscleral tissues were prepared. One corneoscleral tissue was placed in a storage solution Optisol-GS (registered trade mark) (Bausch & Lomb, Inc) (control), and the other corneoscleral tissue was placed in Optisol-GS containing 0.95 μM compound (I). Similarly, corneoscleral tissues were prepared from another 5 male Japanese white rabbits, one corneoscleral tissue was placed in Optisol-GS (control), and the other corneoscleral tissue was placed in Optisol-GS containing 10 μM Y-27632. The samples containing each corneoscleral tissue were preserved at 4° C. Two or three weeks later, the corneoscleral tissues were stained with Hoechst (Hoechst 33342, Sigma, Cat. #B2261), PI (propidium iodide, Sigma, Cat. #P4170) and Annexin V (Annexin V-FITC, MBL, Cat. #4700-100), and the cells therein were indentified as living cells, dead cells and apoptotic cells. In addition, the various cells in the stained cornea were counted using ImageJ (ver.1.44i, NIH, http://imagej.nih.gov/ij), and the mean value and the standard deviation of 5 visual fields were determined. The various cell counts were statistically analyzed by the student's t-test.

| SMILES | area of the unrepaired wound site (corneal endothelium wound area) ([1]; 10 mM instillation) [mm^2] | number of dead cells versus control (corneoscleral tissues; 10 μM in Optisol-GS) | area of the unrepaired wound site (corneal endothelium wound area) ([1]; 0.32 mM instillation) [mm^2] | area of the unrepaired wound site (corneal endothelium wound area) ([1]; 0.95 mM instillation) [mm^2] | wound area compared to the PBS instillation group ([1]; 0.95 mM instillation, Dunnett's test) | number of dead cells versus control (corneoscleral tissues; 0.95 μM in Optisol-GS, 2 weeks) | number of apoptotic cells versus control (corneoscleral tissues; 0.95 μM in Optisol-GS, 3 weeks) | number of dead cells versus control (corneoscleral tissues; 0.95 μM in Optisol-GS, 3 weeks) |
| --- | --- | --- | --- | --- | --- | --- | --- | --- |
| C[C@@H](N)[C@H]1CC[C@H](C(=O)Nc2ccncc2)CC1 [Y-27632, reference compound] | 1.1 | only the number of dead cells decreased significantly |  |  |  |  |  |  |
| C[C@@H](N)c1ccc(C(=O)Nc2ccnc3[nH]ccc23)cc1.Cl [compound (I), (R)-(+)-N-(1H-pyrrolo[2,3-b]pyridin-4-yl)-4-(1-aminoethyl)benzamide monohydrochloride] |  |  | 1.1 | 0.4 | statistically significant decrease in the wound area | decreased significantly | decreased significantly | decreased significantly |
